Experimental data from ChEMBL document CHEMBL3301562, “MMV Box screening against Plasmodium falciparum protein kinases and aminoacyl tRNA synthetases”.

Columns and labels:
Assay type in all cases: functional
[1] = target: Calcium-dependent protein kinase 1 (Plasmodium falciparum, UniProt P62344); assay: MMV: CDPK1 Protein kinase inhibition assay using recombinant PfCDPK1, syntide 2 peptide substrate, ATP and KinaseGlo to measure % inhibition at 1 uM MMV box compound.
[2] = target: T1, Mitogen-activated protein kinase (Plasmodium falciparum, UniProt Q25917); assay: Final concentrations were 1 uM ATP, 0.5 mM DTT, 1 mM MgCl2, 0.5 mg/mL BSA, and 10 ug/ml MAP2 in a buffer of 50 mM HEPES (pH 7.0). 0.5 mg/mL histone III-S served as the substrate (13); 100 uM AMP-PNP, an ATP analog, was used as a control inhibitor. Incubation time was 4 hours.
T1 sequence (Q25917 whole entry): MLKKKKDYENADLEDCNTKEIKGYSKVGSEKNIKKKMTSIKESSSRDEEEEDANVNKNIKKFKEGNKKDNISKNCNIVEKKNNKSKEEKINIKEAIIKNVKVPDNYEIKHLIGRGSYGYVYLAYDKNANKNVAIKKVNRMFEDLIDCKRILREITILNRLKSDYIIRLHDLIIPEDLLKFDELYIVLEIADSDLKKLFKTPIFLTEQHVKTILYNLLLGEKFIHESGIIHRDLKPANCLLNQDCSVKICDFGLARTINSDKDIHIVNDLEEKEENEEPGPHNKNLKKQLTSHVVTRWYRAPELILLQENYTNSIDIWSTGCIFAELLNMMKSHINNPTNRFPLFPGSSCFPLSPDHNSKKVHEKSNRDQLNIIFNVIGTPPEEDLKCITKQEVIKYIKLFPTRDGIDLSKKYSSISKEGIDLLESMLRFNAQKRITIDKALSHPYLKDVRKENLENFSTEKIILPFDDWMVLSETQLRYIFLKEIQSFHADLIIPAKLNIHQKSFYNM

[3] = target: T2, Putative uncharacterized protein pk7 (Plasmodium falciparum, UniProt O96214); assay: Final concentrations were 1 uM ATP, 2 mM DTT, 20 mM MgCl2, 2 mM MnCl2, 0.01% BSA, and 6 ug/ml PK7, in a buffer of 20 mM Tris-HCl (pH 7.5). The enzyme itself was the only substrate present (since autophosphorylation occurs); 100 uM 1NA-PP1 was used as a control inhibitor. Incubation time was 3 hours.
T2 sequence (O96214 whole entry): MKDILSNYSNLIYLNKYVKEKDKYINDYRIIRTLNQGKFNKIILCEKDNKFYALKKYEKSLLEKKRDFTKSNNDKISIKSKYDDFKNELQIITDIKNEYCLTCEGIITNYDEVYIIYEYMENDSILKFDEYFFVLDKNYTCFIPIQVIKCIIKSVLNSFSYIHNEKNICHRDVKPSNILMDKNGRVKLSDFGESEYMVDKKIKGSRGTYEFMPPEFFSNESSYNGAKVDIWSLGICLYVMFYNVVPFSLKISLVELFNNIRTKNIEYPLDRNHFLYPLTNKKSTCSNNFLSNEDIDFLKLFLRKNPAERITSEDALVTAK

[4] = target: T3, Calcium-dependent protein kinase 4 (Plasmodium falciparum (isolate 3D7), UniProt Q8IBS5); assay: MMV: CDPK4 Protein kinase inhibition assay using recombinant PfCDPK4, syntide2 peptide substrate, ATP and KinaseGlo to measure % inhibition at 1 uM MMV box compound.
T3 sequence (Q8IBS5 whole entry): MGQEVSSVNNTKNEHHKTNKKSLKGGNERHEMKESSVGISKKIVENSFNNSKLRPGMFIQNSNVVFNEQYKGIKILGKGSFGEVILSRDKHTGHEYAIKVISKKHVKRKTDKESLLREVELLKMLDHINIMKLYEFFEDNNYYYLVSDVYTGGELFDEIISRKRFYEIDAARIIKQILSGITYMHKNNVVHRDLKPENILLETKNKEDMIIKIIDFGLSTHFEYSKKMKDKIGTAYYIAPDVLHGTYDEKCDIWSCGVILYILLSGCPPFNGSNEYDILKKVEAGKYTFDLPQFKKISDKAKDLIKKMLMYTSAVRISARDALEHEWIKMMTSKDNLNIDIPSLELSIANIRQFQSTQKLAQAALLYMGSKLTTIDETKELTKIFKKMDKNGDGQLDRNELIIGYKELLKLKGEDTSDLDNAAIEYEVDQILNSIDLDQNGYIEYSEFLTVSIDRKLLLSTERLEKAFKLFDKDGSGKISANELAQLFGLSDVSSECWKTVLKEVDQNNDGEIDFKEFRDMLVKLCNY

Lysine--tRNA ligase = Lysine--tRNA ligase (Plasmodium falciparum (isolate 3D7), UniProt Q8IDJ8); assay: MMV: KRS recombinant Plasmodium falciparum Lysyl-tRNA-synthetase, assay with yeast tRNA, ATP, and lysine and 3 uM MMV malaria box compound, assay read out with kinase glo as % inhibition.
Lysine--tRNA ligase, sequence (Q8IDJ8 whole entry): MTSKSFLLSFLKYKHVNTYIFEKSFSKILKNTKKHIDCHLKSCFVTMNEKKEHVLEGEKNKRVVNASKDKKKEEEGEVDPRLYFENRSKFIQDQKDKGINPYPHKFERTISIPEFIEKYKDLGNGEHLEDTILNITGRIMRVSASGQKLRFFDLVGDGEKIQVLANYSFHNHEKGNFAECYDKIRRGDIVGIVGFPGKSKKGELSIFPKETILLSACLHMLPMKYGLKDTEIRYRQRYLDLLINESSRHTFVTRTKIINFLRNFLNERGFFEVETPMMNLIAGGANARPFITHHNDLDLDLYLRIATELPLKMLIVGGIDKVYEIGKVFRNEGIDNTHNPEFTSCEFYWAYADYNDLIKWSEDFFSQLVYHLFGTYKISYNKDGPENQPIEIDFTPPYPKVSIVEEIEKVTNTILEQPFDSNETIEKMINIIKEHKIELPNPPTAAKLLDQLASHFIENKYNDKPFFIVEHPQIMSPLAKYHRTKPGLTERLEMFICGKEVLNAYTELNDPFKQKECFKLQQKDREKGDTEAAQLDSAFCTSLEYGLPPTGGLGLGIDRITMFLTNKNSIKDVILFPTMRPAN

[5] = target: T4, Cdk-related protein kinase 6 (Plasmodium falciparum, UniProt O77239); assay: Final concentrations were 1.5 uM ATP, 5 mM MnCl2, and 15 ug/ml PK6 in a buffer of 100 mM Tris-HCl (pH 7.5). 50 ug/mL MBP was provided as the substrate; 10 uM staurosporine was used as a control inhibitor. Incubation time was 3 hours and 40 minutes.The catalytic activity of each kinase was considered proportional to ATP consumed, as determined from measurements of residual [ATP] with the luciferase-based reagent Kinase-Glo (Promega) following incubation. Luminescence (proportional to residual [ATP]) was measured on the plate readers FLx800 (BioTek Instruments, Winooski, VT, USA) and MicroBeta2.
T4 sequence (O77239 whole entry): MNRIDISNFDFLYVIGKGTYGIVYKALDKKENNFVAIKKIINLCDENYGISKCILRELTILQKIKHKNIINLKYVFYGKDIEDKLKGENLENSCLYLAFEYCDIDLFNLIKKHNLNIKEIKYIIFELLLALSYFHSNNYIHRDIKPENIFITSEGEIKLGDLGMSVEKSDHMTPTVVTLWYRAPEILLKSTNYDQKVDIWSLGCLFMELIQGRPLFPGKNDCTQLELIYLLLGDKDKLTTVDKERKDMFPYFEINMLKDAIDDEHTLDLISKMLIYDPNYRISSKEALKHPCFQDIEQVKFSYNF

Proline--tRNA ligase = target: T5, Proline--tRNA ligase (Plasmodium falciparum (isolate 3D7), UniProt Q8I5R7); assay: MMV: ProRS recombinant Plasmodium falciparum Prolyl-tRNA-synthetase, assay with yeast tRNA, ATP, and proline and 3 uM MMV malaria box compound, assay read out with kinase glo as % inhibition.
T5 sequence (Q8I5R7 whole entry): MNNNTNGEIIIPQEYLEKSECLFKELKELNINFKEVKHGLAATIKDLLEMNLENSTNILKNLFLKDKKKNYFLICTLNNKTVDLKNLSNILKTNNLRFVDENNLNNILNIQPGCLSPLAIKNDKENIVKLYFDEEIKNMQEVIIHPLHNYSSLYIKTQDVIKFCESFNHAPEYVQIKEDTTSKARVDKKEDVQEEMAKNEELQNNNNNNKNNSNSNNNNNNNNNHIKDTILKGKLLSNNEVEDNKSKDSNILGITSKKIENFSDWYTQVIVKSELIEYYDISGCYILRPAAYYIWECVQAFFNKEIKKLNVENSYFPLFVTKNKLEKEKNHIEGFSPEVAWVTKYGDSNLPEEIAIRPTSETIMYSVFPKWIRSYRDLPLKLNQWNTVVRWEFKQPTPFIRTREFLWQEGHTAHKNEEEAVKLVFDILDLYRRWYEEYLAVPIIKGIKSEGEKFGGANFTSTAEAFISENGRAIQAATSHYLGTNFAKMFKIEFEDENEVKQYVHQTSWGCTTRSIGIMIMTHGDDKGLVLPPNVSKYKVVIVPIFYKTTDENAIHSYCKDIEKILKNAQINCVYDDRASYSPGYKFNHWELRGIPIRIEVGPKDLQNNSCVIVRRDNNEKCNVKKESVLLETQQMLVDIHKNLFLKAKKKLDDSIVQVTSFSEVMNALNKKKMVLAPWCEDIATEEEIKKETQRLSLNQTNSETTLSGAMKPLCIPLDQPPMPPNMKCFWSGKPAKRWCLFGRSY

Calcium-dependent protein kinase 1, sequence (P62344 whole entry): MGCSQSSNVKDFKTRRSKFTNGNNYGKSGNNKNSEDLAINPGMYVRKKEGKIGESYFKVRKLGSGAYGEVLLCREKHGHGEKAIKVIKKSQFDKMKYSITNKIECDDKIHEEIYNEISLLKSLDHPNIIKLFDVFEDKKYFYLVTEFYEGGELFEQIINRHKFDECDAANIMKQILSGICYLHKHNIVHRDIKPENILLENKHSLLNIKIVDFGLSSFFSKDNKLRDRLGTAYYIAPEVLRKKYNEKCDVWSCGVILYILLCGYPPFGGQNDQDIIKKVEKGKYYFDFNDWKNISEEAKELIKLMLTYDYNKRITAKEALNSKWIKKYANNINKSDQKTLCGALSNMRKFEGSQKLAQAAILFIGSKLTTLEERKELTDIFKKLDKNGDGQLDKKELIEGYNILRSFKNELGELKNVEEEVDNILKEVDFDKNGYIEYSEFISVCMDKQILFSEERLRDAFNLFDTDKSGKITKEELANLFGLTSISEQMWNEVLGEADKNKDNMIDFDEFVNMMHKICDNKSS

| SMILES | IC50 [1] | IC50 [2] | IC50 [3] | IC50 [4] | IC50 (Lysine--tRNA ligase) | IC50 [5] | IC50 (Proline--tRNA ligase) |
| --- | --- | --- | --- | --- | --- | --- | --- |
| CCn1c(SCC(=O)Nc2cc(C(F)(F)F)ccc2Cl)nc2ccccc2c1=O | > 1000 nM | > 1000 nM | > 1000 nM | > 1000 nM | > 2500 nM | > 1000 nM | > 2500 nM |
| Cc1ccc(Cn2c(N3CCC(C(=O)NCc4cccs4)CC3)nc3ccccc32)cc1 | > 1000 nM | > 1000 nM | > 1000 nM | > 1000 nM | > 2500 nM | > 1000 nM | > 2500 nM |
| O=C(Nc1ccc(Cl)cc1C(=O)Nc1ccncc1)c1ccc(Cl)cc1Cl | > 1000 nM | > 1000 nM | > 1000 nM | > 1000 nM | > 2500 nM | > 1000 nM | > 2500 nM |
| CCOc1ccc(-c2nonc2NC(=O)c2cccc(C)c2)cc1OCC | > 1000 nM | > 1000 nM | > 1000 nM | > 1000 nM | > 2500 nM | > 1000 nM | > 2500 nM |
| CC(C)(C)CC(C)(C)NCC(O)COc1ccc2c(c1)CCC2 (configuration not stated) | > 1000 nM | > 1000 nM | > 1000 nM | > 1000 nM | > 2500 nM | > 1000 nM | > 2500 nM |
| CCOc1ccc(/C=C/c2nc(=O)c3ccccc3o2)cc1 | > 1000 nM | > 1000 nM | > 1000 nM | > 1000 nM | > 2500 nM | > 1000 nM | > 2500 nM |
| CC(O)(c1ccc(Cl)cc1)C(CN1CCCCC1)c1ccccc1 (configuration not stated) | > 1000 nM | > 1000 nM | > 1000 nM | > 1000 nM | > 2500 nM | > 1000 nM | > 2500 nM |
| CCCCc1ccc(NS(=O)(=O)c2cc3c4c(c2)CCN4C(=O)CC3)cc1 | > 1000 nM | > 1000 nM | > 1000 nM | > 1000 nM | > 2500 nM | > 1000 nM | > 2500 nM |
| CCOc1ccccc1CNC(=O)C1c2ccccc2C(=O)N(CC(C)C)C1c1cccs1 (configuration not stated) | > 1000 nM | > 1000 nM | > 1000 nM | > 1000 nM | > 2500 nM | > 1000 nM | > 2500 nM |
| COc1ccc(C2Sc3ccccc3N=C3C2=C(O)c2ccccc23)cc1 (configuration not stated) | > 1000 nM | > 1000 nM | > 1000 nM | > 1000 nM | > 2500 nM | > 1000 nM | > 2500 nM |
| CC1CCCCN1CCCNC(=O)c1ccc2c(c1)sc1nc(-c3ccc(F)cc3)cn12 (configuration not stated) | > 1000 nM | > 1000 nM | > 1000 nM | > 1000 nM | > 2500 nM | > 1000 nM | > 2500 nM |
